Test results as given in patent publication US10246456B2, “IRAK4 inhibiting agents” (BIOGEN MA INC., priority 2014, dated 2019).

Each compound was assayed against IRAK4 (Homo sapiens (Human), UniProt Q9NWZ3) (assay: IRAK-4 AlphaScreen biochemical kinase assay). Conditions: 1 nM IRAK4, 1 mM ATP, 3.5 h at RT.
Procedure, shortened: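 AlphaScreen read-out: streptavidin beads bind the biotinylated peptide and protein A beads bind the anti-phosphothreonine antibody, so energy transfer reports phosphorylation of the peptide. The kinase is human IRAK-4.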

IRAK4, sequence (Q9NWZ3 whole entry, species assumed): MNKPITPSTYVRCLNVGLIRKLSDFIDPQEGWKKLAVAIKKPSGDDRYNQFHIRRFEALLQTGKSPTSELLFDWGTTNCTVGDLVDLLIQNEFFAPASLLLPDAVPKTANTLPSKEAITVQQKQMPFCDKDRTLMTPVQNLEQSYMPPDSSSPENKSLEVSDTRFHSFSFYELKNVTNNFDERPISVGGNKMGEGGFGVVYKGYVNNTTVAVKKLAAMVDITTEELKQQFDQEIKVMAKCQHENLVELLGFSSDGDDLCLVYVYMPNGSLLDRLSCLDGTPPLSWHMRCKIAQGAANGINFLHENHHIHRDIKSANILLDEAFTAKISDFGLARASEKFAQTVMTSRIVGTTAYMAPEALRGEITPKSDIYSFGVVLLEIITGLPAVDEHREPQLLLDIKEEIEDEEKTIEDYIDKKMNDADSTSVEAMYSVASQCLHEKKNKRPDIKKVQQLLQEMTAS

IC50 [nM]	SMILES
1000 to 10000	C[C@@H](N)c1ccnc(-c2ccc3cnn(-c4cccc(CO)n4)c3c2)n1 [Example 412, (R)-(6-(6-(4-(1-aminoethyl)pyrimidin-2-yl)-1H-indazol-1-yl)pyridin-2-yl)methanol]
< 100	CC1(N)CCCc2ccc(-c3ccc4cnn(-c5cccc(CO)n5)c4c3)nc21 (centres unmarked) [Example 420, (6-(6-(8-amino-8-methyl-5,6,7,8-tetrahydroquinolin-2-yl)-1H-indazol-1-yl)pyridin-2-yl)methanol]
< 100	CCCC1(N)CCCc2ccc(-c3ccc4cnn(-c5cccc(CO)n5)c4c3)nc21 (centres unmarked) [Example 421, (6-(6-(8-amino-8-propyl-5,6,7,8-tetrahydroquinolin-2-yl)-1H-indazol-1-yl)pyridin-2-yl)methanol]
< 100	CCC[C@H](N)c1cccc(-c2cc(C3CCN(C)CC3)c3cnn(-c4cccc(CO)n4)c3c2)n1 [Example 424, (S)-(6-(6-(6-(1-aminobutyl)pyridin-2-yl)-4-(1-methylpiperidin-4-yl)-1H-indazol-1-yl)pyridin-2-yl)methanol]
< 100	CCC[C@H](N)c1cccc(-c2cc(OCCO)c3cnn(-c4cccc(CO)n4)c3c2)n1 [Example 426, (S)-2-((6-(6-(1-aminobutyl)pyridin-2-yl)-1-(6-(hydroxymethyl)pyridin-2-yl)-1H-indazol-4-yl)oxy)ethanol]
< 100	COCCOc1cc(-c2cccc([C@@H](N)CCCO)n2)cc2c1cnn2-c1cncc(CO)n1 [Example 428, (S)-4-amino-4-(6-(1-(6-(hydroxymethyl)pyrazin-2-yl)-4-(2-methoxyethoxy)-1H-indazol-6-yl)pyridin-2-yl)butan-1-ol]
< 100	COCCOc1cc(-c2cccc([C@@H](N)C(F)CCO)n2)cc2c1cnn2-c1cccc(CO)n1 (stereo partly drawn) [Example 430, (4R)-4-amino-3-fluoro-4-(6-(1-(6-(hydroxymethyl)pyridin-2-yl)-4-(2-methoxyethoxy)-1H-indazol-6-yl)pyridin-2-yl)butan-1-ol]
100 to 1000	COCCOc1cc(-c2cccc([C@H](N)C(F)CCO)n2)cc2c1cnn2-c1cccc(CO)n1 (stereo partly drawn) [Example 431, (4S)-4-amino-3-fluoro-4-(6-(1-(6-(hydroxymethyl)pyridin-2-yl)-4-(2-methoxyethoxy)-1H-indazol-6-yl)pyridin-2-yl)butan-1-ol]
< 100	C=CC[C@H](N)c1cccc(-c2ccc3cnn(-c4cccc(CO)n4)c3c2)n1 [Example 435, (S)-(6-(6-(6-(1-aminobut-3-en-1-yl)pyridin-2-yl)-1H-indazol-1-yl)pyridin-2-yl)methanol]
< 100	CCOc1cc(-c2cccc([C@@H](N)c3ccccc3)n2)cc2c1cnn2-c1cccc(CO)n1 [Example 440, (S)-(6-(6-(6-(amino(phenyl)methyl)pyridin-2-yl)-4-ethoxy-1H-indazol-1-yl)pyridin-2-yl)methanol]
< 100	CC#CC[C@H](N)c1cccc(-c2cc(OCC)c3cnn(-c4cccc(CO)n4)c3c2)n1 [Example 441, (S)-(6-(6-(6-(1-aminopent-3-yn-1-yl)pyridin-2-yl)-4-ethoxy-1H-indazol-1-yl)pyridin-2-yl)methanol]
< 100	CC(=O)C[C@H](N)c1cccc(-c2ccc3cnn(-c4cccc(CO)n4)c3c2)n1 [Example 449, (S)-4-amino-4-(6-(1-(6-(hydroxymethyl)pyridin-2-yl)-1H-indazol-6-yl)pyridin-2-yl)butan-2-one]

SMILES	IC50 [nM]
[2H][C@](N)(CCC)c1cccc(-c2ccc3cnn(-c4cccc(CO)n4)c3c2)n1 [Example 419, deutero (S)-(6-(6-(6-(1-aminobutyl)pyridin-2-yl)-1H-indazol-1-yl)pyridin-2-yl)methanol]	< 100
COCCOc1cc(-c2cccc([C@@H](N)C(C)F)n2)cc2c1cnn2-c1cccc(CO)n1 (stereo partly drawn) [Example 433, (6-(6-(6-((1R)-1-amino-2-fluoropropyl)pyridin-2-yl)-4-(2-methoxyethoxy)-1H-indazol-1-yl)pyridin-2-yl)methanol]	< 100
